Data taken from publication PMC6689975, “Novel Cell Wall Antifungals Reveal a Special Synergistic Activity in pbr1 Mutants Resistant to the Glucan Synthesis Antifungals Papulacandins and Echinocandins” (Frontiers in Microbiology, 2019).
Values after ≈ are worked out from the molar mass of the structure shown.

Tested on: Candida albicans C. a.^g (Table 6)
Assay: microbe, parasite or virus in culture
Design: species or system yeast; micro tube dilution MIC in YES (± 1.2 M sorbitol), complete growth inhibition by turbidity
Settings: 48 h, read-out: MIC
Procedure, shortened: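 YEPD/YES ± 1.2 M sorbitol; 2 X 10^6 cells/ml early log phase; cpd 0–200 μg/ml, 2% DMSO; 30°C, roller; turbidity 24 h + 48 h; MIC = no visible growth; n ≥ 3.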

CC[C@H](C)C[C@H](C)CCCCCCCCC(=O)N[C@H]1C[C@@H](O)[C@@H](NCCN)NC(=O)[C@@H]2[C@@H](O)CCN2C(=O)[C@H]([C@H](O)CCN)NC(=O)[C@H]([C@H](O)[C@@H](O)c2ccc(O)cc2)NC(=O)[C@@H]2C[C@@H](O)CN2C(=O)[C@H]([C@@H](C)O)NC1=O [caspofungin]
MIC: 50 µg/mL (≈ 45.7 µM)
